Laboratory results as given in patent publication US20230271947A1, “SALT AND CRYSTAL FORM OF KETOHEXOKINASE INHIBITOR AND USE THEREOF” (SHANDONG XUANZHU PHARMA CO., LTD., priority 2020, published 2023).

Tests used:
KHK-C = biological target: T1, KHK-C (Homo sapiens, UniProt P50053); test: In vitro KHK kinase inhibitory activity test (ADP-Glo); format: biochemical; conditions: 1 nM KHK-C, 100 µM ATP, 200 µM D-Fructose
T1 construct: purchased Origene TP323488
T1 sequence (P50053 1-298): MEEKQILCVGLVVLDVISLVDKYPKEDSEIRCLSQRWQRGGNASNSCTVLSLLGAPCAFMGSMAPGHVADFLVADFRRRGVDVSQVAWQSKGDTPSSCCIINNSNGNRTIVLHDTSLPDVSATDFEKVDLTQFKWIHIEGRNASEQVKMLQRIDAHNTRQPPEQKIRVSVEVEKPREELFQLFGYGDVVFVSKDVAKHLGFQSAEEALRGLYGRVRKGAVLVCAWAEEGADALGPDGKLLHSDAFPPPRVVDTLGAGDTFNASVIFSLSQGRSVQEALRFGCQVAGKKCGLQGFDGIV
Method: 1) DMSO was used to prepare the compound of the present invention and a control drug to 10 mM, which was used as a testing stock solution.
2) The compound stock solution of the present invention was diluted 10-fold to 1 mM, and then the compound of the present invention was diluted in gradient 3-fold to 11 concentrations, with the highest concentration of 1 mM. The control drug stock solution was diluted 100-fold to 0.1 mM, and then the control drug was diluted in gradient 3-fold to 11 concentrations, with the highest concentration of 0.1 mM.
3) 0.1 µL of the diluted compound of the present invention and 0.1 µL of the diluted control drug were transferred by using Echo550 to a 384-well plate respectively, with two repeated wells set for each concentration, and centrifuged at 1,000 rpm for 1 min.
1) 5 µL of KHK-C kinase working fluid was added to a 384-well plate, centrifuged at 1,000 rpm for 1 min, and then incubated at a room temperature of 25° C. for 15 min. […]
3) After the reaction was completed, fluorescence value LUM was read on Envision.
Inhibition (% inh) was calculated by using the following equation: […]
IC50 was calculated by curve fitting with software.

[1] = Stability investigation of crystal forms A, B, C, D and the amorphous form of the compound of formula (1) (related substances by HPLC, moisture, XRD, DSC); format: physicochemical
Method: (§1) 2.1 Investigation conditions for the crystal form A of the compound of formula (1): • placed at 105° C. for 5 days, opened, and sampled for testing on day 5; • placed at 60° C. for 10 days, opened/closed, and sampled for testing on day 10; • placed at 25° C. and RH 92.5% for 10 days, opened/closed, and sampled for testing on day 10; • placed at 40° C. and RH 75% for one month, opened/closed, and sampled for testing on the last day of the month; and • under illumination, employing a closed way (polyethylene bag + composite film bag) to meet illumination requirements, and sampled for testing.
Illumination requirements: ICH Q1B Stability Testing: Photostability Testing of New Drug Substances and Products.
Determination of related substances: determined according to 0512 HPLC in General Principle (Volume IV) of Chinese Pharmacopoeia (2015 Version).
Moisture determination: determined according to 2 Coulometric Titration in the First Method (Karl Fischer titration) of 0832 Moisture Determination Method in General Principle (Volume IV) of Chinese Pharmacopoeia (2015 Version).
XRD determination: determined according to the Second Method-Powder X-ray Diffraction Method of 0451 X-ray Diffraction Method in General Principle (Volume IV) of Chinese Pharmacopoeia (2015 Version).
DSC determination: precisely weighing an appropriate amount of sample in a Standard disc, covering the Standard disc, placing the Standard disc in a sample disc position in a DSC furnace, placing a blank disc of the same type in a reference position, and carrying out the following temperature rise program:
1. Equilibrate at 25° C.; and
as §1, with “B” for “A”
as §1, with “C” for “A”
1. Equilibrate at 25° C.; and 2. Ramp 10° C. to 200° C.
as §1, with “D” for “A”
as §1, with “amorphous” for “crystal”, “form” for “form A”, “(1):” for “(1): • placed at 105° C. for 5 days, opened, and sampled for testing on day 5;”

[2] = tested on: D-Fructose-induced fructose-1-phosphate in HepG2 cells; test: In vitro cell inhibitory activity test: D-Fructose-induced fructose-1-phosphate in HepG2 cells (LC-MS); format: cell-based; conditions: D-Fructose 3 h, read-out: EC50 (nM), inhibition of D-Fructose-induced fructose-1-phosphate
Method: 1) HepG2 cells in logarithmic growth phase were collected and counted by using a […]. Cell viability was detected by trypan blue exclusion method to ensure that the cell viability was above 90%.
2) A concentration of the HepG2 cells was adjusted, and 81 µL of FBS-free basal medium (starvation treated) cell suspension was added to each 96-well plate with a testing well cell inoculation quantity of 5 × 10^4.
3) The HepG2 cells in the 96-well plates were cultured overnight at 37° C., 5% CO2, and 95% humidity.
1) Before dosing, 9 µL of FBS was added into testing wells of the 96-well plate, and the starvation treatment was stopped.
2) A 10-fold compound solution was prepared, with the highest concentration of 100 µM, 8 concentrations and 3-fold gradient dilution. 10 µL of drug solution was added to each well of the 96-well plate inoculated with the cells, and three repeated wells were set for each drug concentration. 10 µL of 1% DMSO solution was added to the solvent control group, and three repeated wells were set.
3) The cells in the 96-well plates added with the drug were incubated at 37° C., 5% CO2, and 95% humidity for 30 min.
4) A 11-fold D-Fructose solution was prepared, with a concentration of 220 mM. […]
Data were analyzed by GraphPad Prism 5.0 software, a dose-effect curve was obtained by using nonlinear S-curve regression, and the EC50 value was calculated.

[3] = 25° C., RH 92.5%, closed, 10 days
[4] = 25° C., RH 92.5%, opened, 10 days

SMILES: C[C@H]1CCN1c1nc(N2C[C@@H]3[C@@H](CC(=O)O)[C@@H]3C2)c2c(n1)C(F)(F)CC2 [Compound of formula (1), 2-((1R,5S,6R)-3-(7,7-difluoro-2-((S)-2-methylazetidin-1-yl)-6,7-dihydro-5H-cyclopenta[d]pyrimidin-4-yl)-3-azabicyclo[3.1.0]hexan-6-yl)acetic acid]
- IC50 (KHK-C): 0.82 nM

SMILES: C[C@H]1CCN1c1nc(N2C[C@@H]3[C@@H](CC(=O)O)[C@@H]3C2)c2c(n1)C(F)(F)CC2 [Crystal form D, 2-((1R,5S,6R)-3-(7,7-difluoro-2-((S)-2-methylazetidin-1-yl)-6,7-dihydro-5H-cyclopenta[d]pyrimidin-4-yl)-3-azabicyclo[3.1.0]hexan-6-yl)acetic acid]
- DSC ([1]; 0 day): 167.79 °C
- Moisture % ([1]; 0 day): 0.066%
- Total related % ([1]; 0 day): 0.37%
- Trait ([1]; 0 day): Off-white power
- DSC [1, 3]: 167.46 °C
- Moisture % [1, 3]: 0.092%
- Total related % [1, 3]: 0.38%
- Trait [1, 3]: Off-white power
- XRD [1, 3]: Same as day 0
- DSC [1, 4]: 167.51 °C
- Moisture % [1, 4]: 0.048%
- Total related % [1, 4]: 0.38%
- Trait [1, 4]: Off-white power
- XRD [1, 4]: Same as day 0
- DSC ([1]; 40° C., RH 75%, closed, 1 M): 167.77 °C
- Moisture % ([1]; 40° C., RH 75%, closed, 1 M): 0.065%
- Total related % ([1]; 40° C., RH 75%, closed, 1 M): 0.38%
- Trait ([1]; 40° C., RH 75%, closed, 1 M): Off-white power
- XRD ([1]; 40° C., RH 75%, closed, 1 M): Same as day 0
- DSC ([1]; 40° C., RH 75%, opened, 1 M): 167.75 °C
- Moisture % ([1]; 40° C., RH 75%, opened, 1 M): 0.12%
- Total related % ([1]; 40° C., RH 75%, opened, 1 M): 0.39%
- Trait ([1]; 40° C., RH 75%, opened, 1 M): Off-white power
- XRD ([1]; 40° C., RH 75%, opened, 1 M): Same as day 0
- DSC ([1]; 60° C., closed, 10 days): 167.43 °C
- Moisture % ([1]; 60° C., closed, 10 days): 0.089%
- Total related % ([1]; 60° C., closed, 10 days): 0.40%
- Trait ([1]; 60° C., closed, 10 days): Off-white power
- XRD ([1]; 60° C., closed, 10 days): Same as day 0
- DSC ([1]; 60° C., opened, 10 days): 167.41 °C
- Moisture % ([1]; 60° C., opened, 10 days): 0.079%
- Total related % ([1]; 60° C., opened, 10 days): 0.41%
- Trait ([1]; 60° C., opened, 10 days): Off-white power
- XRD ([1]; 60° C., opened, 10 days): Same as day 0
- DSC ([1]; 105° C., opened, 5 days): 167.19 °C
- Moisture % ([1]; 105° C., opened, 5 days): 0.045%
- Total related % ([1]; 105° C., opened, 5 days): 0.51%
- Trait ([1]; 105° C., opened, 5 days): Off-white power
- XRD ([1]; 105° C., opened, 5 days): Same as day 0
- DSC ([1]; Avoid light for 18 days): 167.49 °C
- Moisture % ([1]; Avoid light for 18 days): 0.048%
- Total related % ([1]; Avoid light for 18 days): 0.38%
- Trait ([1]; Avoid light for 18 days): Off-white power
- XRD ([1]; Avoid light for 18 days): Same as day 0
- Stability, testing conclusion ([1]; under the above conditions (all placement conditions of the study)): relatively stable

SMILES: C[C@H]1CCN1c1nc(N2C[C@@H]3[C@@H](CC(=O)O)[C@@H]3C2)cc(C(F)(F)F)n1 [PF-06835919]
- EC50 [2]: 169 nM
